Source: patent US20050080113A1, “Medicinal compositions” (priority 2001, published 2005)

Row | melting point [°C] | SMILES
1 | 199 to 201 | Cc1cccc(-c2nc(-c3ccc(S(C)(=O)=O)cc3)sc2-c2ccnc(NC(=O)c3cccs3)c2)c1 [D 21-3, N-[4 [4 (3 methylphenyl)-2-(4 methylsulfonylphenyl)-1,3 thiazol-5 yl]-2 pyridyl]-2-thiophenecarboxamide]
2 | 231 to 233 | Cc1cccc(-c2nc(-c3ccc(S(C)(=O)=O)cc3)sc2-c2ccnc(NC(=O)c3ccc4ccccc4c3)c2)c1 [D 21-4, N-[4 [4 (3 methylphenyl)-2-(4 methylsulfonylphenyl)-1,3 thiazol-5 yl]-2 pyridyl]-2-naphthamide]
3 | 167 to 168 | Cc1cccc(-c2nc(-c3ccc(S(C)(=O)=O)cc3)sc2-c2ccnc(NCCCc3ccccc3)c2)c1 [D 21-6, N-[4-[4-(3-methylphenyl)-2-(4-methylsulfonylphenyl)-1,3-thiazol-5-yl]-2-pyridyl]-N-(3-phenylpropyl)amine]
4 | 167 to 168 | Cc1cccc(-c2nc(-c3ccc(S(C)(=O)=O)cc3)sc2-c2ccnc(NCc3ccc4ccccc4c3)c2)c1 [D 21-7, N-[4 [4 (3 methylphenyl)-2-(4 methylsulfonylphenyl)-1,3 thiazol-5 yl]-2 pyridyl]-N-(2-naphthylmethyl)amine]
5 | 116 to 117 | Cc1cccc(-c2nc(-c3ccc(S(C)(=O)=O)cc3)sc2-c2ccnc(N(C)CCc3ccccc3)c2)c1 [D 25-4, N-methyl-N-[4 [4 (3-methylphenyl)-2 (4 methylsulfonylphenyl)-1,3 thiazol-5 yl]-2 pyridyl]-N-(2 phenylethyl)amine]
6 | 107 to 109 | Cc1cccc(-c2nc(-c3ccc(S(C)(=O)=O)cc3)sc2-c2ccnc(NCc3cccs3)c2)c1 [D 25-5, N-[4 [4 (3 methylphenyl)-2-(4 methylsulfonylphenyl)-1,3 thiazol-5 yl]-2 pyridyl]-N-(2-thienylmethyl)amine]
7 | 131 to 132 | CCc1nc(-c2cccc(Cl)c2)c(-c2ccnc(N)c2)s1 [H 20-1, 4 [2 ethyl-4 (3-chlorophenyl)-1,3 thiazol-5 yl]-2 pyridylamine]
8 | 158 to 159 | CCc1nc(-c2ccccc2)c(-c2ccnc(N)c2)s1 [H 20-2, 4 (2 ethyl-4 phenyl-1,3-thiazol-5 yl)-2 pyridylamine]
9 | 140 to 141 | CCc1nc(-c2ccc(F)cc2)c(-c2ccnc(N)c2)s1 [H 20-3, 4 [2 ethyl-4 (4-fluorophenyl)-1,3 thiazol-5 yl]-2 pyridylamine]
10 | 117 to 118 | CCc1nc(-c2cccc(C(F)(F)F)c2)c(-c2ccnc(N)c2)s1 [H 20-4, 4 [2 ethyl-4 [3-(trifluoromethyl)phenyl]-1,3 thiazol-5 yl]-2 pyridylamine]
11 | 119 to 120 | CCc1nc(-c2ccc(SC)cc2)c(-c2ccnc(N)c2)s1 [H 20-5, 4 [2 ethyl-4 [4-(methylthio)phenyl]-1,3 thiazol-5 yl]-2 pyridylamine]
12 | 153 to 154 | CCc1nc(-c2cccc(F)c2)c(-c2ccnc(N)c2)s1 [H 20-6, 4 [2 ethyl-4 (3-fluorophenyl)-1,3 thiazol-5 yl]-2 pyridylamine]
13 | 136 to 137 | CCc1nc(-c2ccc(Cl)cc2)c(-c2ccnc(N)c2)s1 [H 20-7, 4 [4 (4 chlorophenyl)-2-ethyl-1,3 thiazol-5 yl]-2 pyridylamine]
14 | 128 to 129 | CCc1cccc(-c2nc(CC)sc2-c2ccnc(N)c2)c1 [H 20-8, 4 [2 ethyl-4 (3-ethylphenyl)-1,3 thiazol-5 yl]-2 pyridylamine]
15 | 134 to 135 | CCc1nc(-c2ccc(F)c(C)c2)c(-c2ccnc(N)c2)s1 [H 20-9, 4 [2 ethyl-4 (4 fluoro-3-methylphenyl)-1,3 thiazol-5 yl]-2 pyridylamine]
16 | 80 to 81 | CCc1nc(-c2cccc(C(C)C)c2)c(-c2ccnc(N)c2)s1 [H 20-10, 4 [2 ethyl-4 [3 (1-methylethyl)phenyl]-1,3 thiazol-5 yl]-2 pyridylamine]
17 | 72 to 74 | CCCc1cccc(-c2nc(CC)sc2-c2ccnc(N)c2)c1 [H 20-11, 4 [2 ethyl-4 (3-propylphenyl)-1,3 thiazol-5 yl]-2 pyridylamine]
18 | 159 to 160 | CCc1nc(-c2cccs2)c(-c2ccnc(N)c2)s1 [H 20-12, 4 [2 ethyl-4 (2 thienyl)-1,3 thiazol-5 yl]-2 pyridylamine]
19 | 91 to 92 | Cc1cccc(-c2ncsc2-c2ccnc(N)c2)c1 [H 27-1, 4 [4 (3 methylphenyl)-1,3-thiazol-5 yl]-2 pyridylamine]
20 | 142 to 143 | Cc1nc(-c2cccc(Cl)c2)c(-c2ccnc(N)c2)s1 [H 27-2, 4 [4 (3 chlorophenyl)-2-methyl-1,3 thiazol-5 yl]-2 pyridylamine]

The next lines start with the compound.

Row | SMILES | melting point [°C]
21 | CSc1ccc(-c2nc(-c3cccc(C)c3)c(-c3ccnc(NCc4ccc5ccccc5c4)c3)s2)cc1 [D 19-20, N-[4 [4 (3 methylphenyl)-2 (4 methylthiophenyl)-1,3 thiazol-5 yl]-2 pyridyl]-N-(2-naphthylmethyl)amine] | 144 to 145
22 | Cc1cccc(-c2nc(-c3ccc(S(C)(=O)=O)cc3)sc2-c2ccnc(SCc3ccccc3)c2)c1 [D 27, 5 (2 benzylthio-4 pyridyl)-4 (3-methylphenyl)-2 (4 methylsulfonylphenyl)-1,3 thiazole] | 182 to 185
23 | COc1ccc(-c2nc(N)sc2-c2ccnc(N)c2)cc1 [H 1, [5 (2 amino-4 pyridyl)-4 (4 methoxyphenyl)-1,3 thiazol-2-yl]amine] | 251 to 254
24 | Nc1nc(-c2ccc(F)cc2)c(-c2ccnc(F)c2)s1 [H 7-3, [4 (4 fluorophenyl)-5 (2-fluoro-4 pyridyl)-1,3 thiazol-2 yl]amine] | 243 to 245
25 | Cc1cccc(-c2nc(N)sc2-c2ccnc(C)c2)c1 [H 7-4, [4-(3-methylphenyl)-5-(2-methyl-4-pyridyl)-1,3-thiazol-2-yl]amine] | 205 to 206
26 | Cc1cc(C)cc(-c2nc(N)sc2-c2ccnc(C)c2)c1 [H 7-5, [4 (3,5 dimethylphenyl)-5-(2 methyl-4 pyridyl)-1,3 thiazol-2 yl]amine] | 219 to 220
27 | Cc1cccc(N2C=C(c3cc(C)nc(C)c3)SC2N)c1 (centres unmarked) [H 7-6, [5 (2,6 dimethyl-4-pyridyl)-3 (3 methylphenyl)-1,3 thiazol-2 yl]amine] | 214 to 216
28 | Cc1cc(C)cc(-c2nc(N)sc2-c2cc(C)nc(C)c2)c1 [H 7-7, [4 (3,5 dimethylphenyl)-5-(2,6 dimethyl-4 pyridyl)-1,3 thiazol-2 yl]amine] | 256 to 258
29 | Cc1cc(-c2sc(N)nc2-c2ccc(F)cc2)ccn1 [H 7-8, [4 (4 fluorophenyl)-5 (2-methyl-4 pyridyl)-1,3 thiazol-2 yl]amine] | 233 to 234
30 | Cc1cccc(-c2nc(-c3ccccc3Cl)sc2-c2ccnc(C)c2)c1 [H 14-1, 2 (2 chlorophenyl)-4 (3-methylphenyl)-5 (2 methyl-4 pyridyl)-1,3 thiazole] | 83 to 84
31 | Cc1cccc(-c2nc(-c3ccc(Cl)cc3)sc2-c2ccnc(C)c2)c1 [H 14-2, 2 (4 chlorophenyl)-4 (3-methylphenyl)-5 (2 methyl-4 pyridyl)-1,3 thiazole] | 104 to 105
32 | Cc1cccc(-c2nc(-c3ccccc3F)sc2-c2ccnc(C)c2)c1 [H 14-3, 2 (2 fluorophenyl)-4 (3-methylphenyl)-5 (2 methyl-4 pyridyl)-1,3 thiazole] | 73 to 74
33 | Cc1cccc(-c2nc(-c3ccc(F)cc3)sc2-c2ccnc(C)c2)c1 [H 14-4, 2 (4 fluorophenyl)-4 (3-methylphenyl)-5 (2 methyl-4 pyridyl)-1,3 thiazole] | 89 to 91
34 | Cc1cccc(-c2nc(-c3ccc(F)cc3F)sc2-c2ccnc(C)c2)c1 [H 14-5, 2 (2,4 difluorophenyl)-4-(3 methylphenyl)-5 (2 methyl-4 pyridyl)-1,3 thiazole] | 90 to 91
35 | Cc1cccc(-c2nc(-c3ccccc3)sc2-c2ccnc(C)c2)c1 [H 14-6, 4 (3 methylphenyl)-5 (2-methyl-4 pyridyl)-2 phenyl-1,3 thiazole] | 79 to 80
36 | Cc1cccc(-c2nc(Cc3ccccc3)sc2-c2ccnc(C)c2)c1 [H 14-7, 4 (3 methylphenyl)-5 (2-methyl-4 pyridyl)-2 (phenylmethyl)-1,3 thiazole] | 82 to 84
37 | Cc1cccc(-c2nc(CCc3ccccc3)sc2-c2ccnc(C)c2)c1 [H 14-8, 4 (3 methylphenyl)-5 (2-methyl-4 pyridyl)-2 (2 phenylethyl)-1,3 thiazole] | 64 to 65
38 | CCOC(=O)c1nc(-c2cccc(C)c2)c(-c2ccnc(C)c2)s1 [H 14-12, ethyl [4 (3-methylphenyl)-5 (2 methyl-4 pyridyl)-1,3 thiazol-2-yl]carboxylate] | 97 to 98
39 | Cc1cccc(-c2nc(N3CCN(C)CC3)sc2-c2ccnc(C)c2)c1 [H 14-13, 4 (3 methylphenyl)-2 (4-methylpiperazin-1 yl)-5 (2 methyl-4 pyridyl)-1,3 thiazole] | 115 to 116
40 | CSc1ccc(-c2nc(-c3cccc(C)c3)c(-c3ccnc(F)c3)s2)cc1 [H 15, 5-(2-fluoro-4-pyridyl)-4-(3-methylphenyl)-2-[4-(methylthio)phenyl]-1,3-thiazole] | 97 to 100
41 | Cc1cccc(-c2nc(-c3ccc(F)cc3)sc2-c2ccnc(N)c2)c1 [H 18-1, 4 [2 (4 fluorophenyl)-4-(3 methylphenyl)-1,3 thiazol-5 yl]-2 pyridylamine] | 160 to 162
42 | Cc1cccc(-c2nc(CC(F)(F)F)sc2-c2ccnc(N)c2)c1 [H 18-3, 4 [4 (3 methylphenyl)-2-(2,2,2 trifluoroethyl)-1,3 thiazol-5 yl]-2 pyridylamine] | 131 to 132
43 | CCCc1nc(-c2cccc(C)c2)c(-c2ccnc(N)c2)s1 [H 18-4, 4 [4 (3 methylphenyl)-2-propyl-1,3 thiazol-5 yl]-2 pyridylamine] | 113 to 115
44 | CCOC(=O)Cc1nc(-c2cccc(C)c2)c(-c2ccnc(N)c2)s1 [H 18-5, Ethyl [5 (2 amino-4-pyridyl)-4 (3 methylphenyl)-1,3 thiazol-2 yl]acetate] | 128 to 129
